Assays:
Experiment in all cases: relative viability (nuclei count vs DMSO), 5 days (fraction); higher = more cells survive
Mirin = compound: N=C1NC(=O)/C(=C/c2ccc(O)cc2)S1 [Mirin]
How it was run: (§1)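 Viability was read as treated-well nuclei divided by vehicle-well nuclei, using the median across plates. Lung cancer cell lines in 1536-well plates were kept overnight at 37 °C, pinned with five √10-spaced library-drug doses, and after 5 days were Hoechst-stained, imaged at 4× and counted in MetaXpress. Plates passed only with control CV below 25% and at least one doubling.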

[1] = compound: CCC1=CN=CN=C1N2CCN(CC2)CC3=NC4=C(N3)C=C(C=C4)C(F)(F)F
How it was run: as §1

[2] = compound: CCn1c(-c2nonc2N)nc2cnc(Oc3cccc(NC(=O)c4ccc(OCCN5CCOCC5)cc4)c3)cc21
How it was run: as §1

Cell Line | relative viability (Mirin; 0.25 µM) | relative viability (Mirin; 0.7906 µM) | relative viability (Mirin; 2.5 µM) | relative viability (Mirin; 7.906 µM) | relative viability (Mirin; 25 µM) | relative viability ([1]; 0.04 µM) | relative viability ([1]; 0.1265 µM) | relative viability ([1]; 0.4 µM) | relative viability ([1]; 1.265 µM) | relative viability ([1]; 4 µM) | relative viability ([2]; 0.04 µM) | relative viability ([2]; 0.1265 µM) | relative viability ([2]; 0.4 µM) | relative viability ([2]; 1.265 µM) | relative viability ([2]; 4 µM)
NCI-H2023 | 1.01 | 0.937 | 0.958 | 0.975 | 0.86 | 1.03 | 0.914 | 0.917 | 0.858 | 1.03 | 1.13 | 0.964 | 0.743 | 0.508 | 0.419
NCI-H2085 | 0.981 | 0.979 | 1.01 | 0.957 | 0.99 | 0.896 | 0.912 | 0.949 | 0.918 | 0.972 | 1.09 | 0.919 | 0.826 | 0.778 | 0.765
NCI-H2087 | 1.01 | 1 | 0.983 | 0.896 | 1.2 | 1.05 | 0.958 | 0.973 | 0.854 | 0.716 | 1.21 | 0.812 | 0.844 | 0.698 | 0.637
NCI-H2126 | 1.03 | 0.908 | 0.995 | 1 | 0.979 | 1 | 0.977 | 0.969 | 0.891 | 1.02 | 1.09 | 1.04 | 0.74 | 0.792 | 0.943
NCI-H2170 | 1.05 | 0.89 | 0.985 | 0.946 | 0.933 | 0.946 | 0.97 | 0.953 | 0.848 | 0.946 | 0.95 | 0.953 | 0.919 | 0.732 | 0.754
NCI-H2228 | 1.09 | 0.89 | 0.969 | 0.886 | 1.02 | 1 | 0.858 | 0.99 | 0.928 | 0.98 | 1.26 | 0.964 | 0.908 | 0.919 | 0.881
NCI-H2342 | 0.998 | 1.02 | 1.03 | 0.668 | 0.888 | 0.936 | 0.888 | 0.864 | 0.543 | 0.72 | 1.04 | 1.05 | 0.874 | 0.748 | 0.804
NCI-H2347 | 0.962 | 0.972 | 1.08 | 0.957 | 1.03 | 1.05 | 0.986 | 1.04 | 0.827 | 1.09 | 1.1 | 1.02 | 0.878 | 0.504 | 0.546
NCI-H2405 | 0.967 | 0.928 | 0.974 | 0.968 | 0.997 | 0.968 | 0.989 | 0.981 |  | 1.11 | 1.05 | 0.668 | 0.254 | 0.318 | 0.327
NCI-H3122 | 1.03 | 0.953 | 1.02 | 1.08 | 1.1 | 1.05 | 1.01 | 0.964 | 1.03 | 1.1 | 1.01 | 0.978 | 0.924 | 0.755 | 0.695
PC-3 [JPC-3] | 1.07 | 1.04 | 1.01 | 1.12 | 1.2 | 1.01 | 0.947 | 0.965 | 1.01 | 1.02 | 1.02 | 0.976 | 0.982 | 0.947 | 0.926
PC-14 | 0.975 | 0.906 | 1.03 | 1.05 | 1.13 | 0.97 | 0.919 | 0.99 | 0.979 | 1 | 1.08 | 0.834 | 0.809 | 0.729 | 0.653
RERF-LC-KJ | 1.07 | 1.08 | 1.01 | 1.04 | 1 | 0.956 | 0.968 | 1.01 | 0.924 | 0.991 | 1.02 | 0.971 | 0.872 | 0.619 | 0.637
SK-LU-1 | 1.14 | 1.07 | 1.07 | 0.809 | 0.905 | 1.1 | 0.969 | 0.967 | 0.808 | 0.994 | 1.16 | 0.795 | 0.672 | 0.452 | 0.566
SK-MES-1 | 1.02 | 1.1 | 1.05 | 1.12 | 1.28 | 1.04 | 0.975 | 0.983 | 1 | 0.985 | 1.1 | 0.915 | 0.82 | 0.709 | 0.746
SW 900 | 1 | 0.773 | 0.888 | 0.98 | 0.869 | 0.842 | 0.928 | 0.866 | 0.626 | 0.857 | 0.892 | 0.946 | 0.917 | 0.716 | 0.83
SW 1573 | 0.986 | 0.825 | 0.986 | 0.968 | 0.779 | 0.925 | 1.08 | 0.912 | 0.858 | 0.941 | 1.1 | 0.992 | 0.74 | 0.488 | 0.338
